# Test results published in patent US12090252B2, “Method for producing retinal tissues” (RIKEN, priority 2017, dated 2024).
# What was measured:
# Assay type in all cases: cell-based
# [1] = test system: cell aggregates containing a retinal tissue produced from human ES cells; assay: CRX-positive and TRβ2-positive cells in retinal tissue, about day 70 of suspension culture (immunostaining, Image J); conditions: for CRX-positive and TRβ2-positive cells (cone photoreceptor precursor) / CRX-positive cells (photoreceptor precursor) contained in retinal tissue: about day 70 (day 71-75) from start of suspension culture, T3 60 nM from day 38, BMP4 0.15 nM or Cyclopamine-KAAD 500 nM from day 22
# Method: (§1) A cell aggregate containing a retinal tissue in an initial developmental stage was prepared by the method described in “Kuwahara et al. Nat Commun 2015, 19(6), 6286-” after modification in part. That is, the aforementioned cultured ES cells were individually dispersed using TRYPLE™ Express cell dispersion solution (Invitrogen), and the individually dispersed human ES cells were suspended in 100 μL of a serum-free medium in a cell non-adhesive 96 well culture plate (SUMILON spheroid plate, SUMITOMO BAKELITE CO., LTD.) at 9×10^3 cells per well to allow rapid formation of aggregates, after which they were cultured at 37° C., 5% CO2. As the serum-free medium therefor, a serum-free medium obtained by adding 10% KSR, 450 μM 1-monothioglycerol, 1× Chemically defined lipid concentrate, 5 mg/mL BSA, 20 μM Y27632 to a 1:1 mixture of F-12 medium and IMDM medium was used. At 6 days after the start of suspension culture, BMP4 at a final concentration of 1.5 nM was added and suspension culture was continued. A half amount of the culture medium in the well was exchanged with the above-mentioned medium not supplemented with a BMP signal transduction pathway agonist every 3 or 4 days. A cell aggregate containing a retinal tissue at day 18 from the start of suspension culture was cultured in suspension in a serum-free medium (DMEM/F12 medium supplemented with 1% N2 supplement) containing 3 μM CHIR99021 and 5 μM SU5402 for 4 days, namely, up to day 22 from the start of suspension culture. Thereafter, suspension culture of the cell aggregate containing the retinal tissue was continued until it was appropriately used for analysis and the like. As the culture medium during this period, serum-containing media shown in the following to [3] were used and the cell aggregate was cultured under 5% CO2 conditions. • [1] day 22 to day 38 from the start of suspension culture; DMEM/F12 medium supplemented with 10% fetal calf serum, 1% N2 supplement, and 100 μM taurine (hereinafter to be referred to as medium A). • [2] day 38 to day 60 from the start of suspension culture; a 1:3 mixed medium of medium A, and Neurobasal medium supplemented with 10% fetal calf serum, 2% B27 supplement, […], and 100 μM taurine (hereinafter to be referred to as medium B). • [3] after day 60 or later from the start of suspension culture: medium B.
# The cell aggregates containing a retinal tissue shown in Example 4 were prepared by respectively adding T3 or dorsalization signal transmitter (BMP4) as follows in the method described in Example 1. • [1]-T3 group (FIG. 4a, FIG. 4e, FIG. 4i); using the culture medium described in Example 1, culture was performed without addition up to day 75 from the start of suspension culture. • [2] +T3 group (FIG. 4b, FIG. 4f, FIG. 4j); using the culture medium described in Example 1, 60 nM T3 was further added from day 38 from the start of suspension culture to the completion of suspension culture, and cultured up to day 71 from the start of suspension culture. • [3] +T3+BMP group (FIG. 4c, FIG. 4g, FIG. 4k); using the culture medium described in Example 1, 0.15 nM BMP4 and 60 nM T3 were further added respectively from day 22, day 38 from the start of suspension culture to the completion of suspension culture, and cultured up to day 71 from the start of suspension culture. • [4] +T3+Cyclopamine-KAAD group (FIG. 4d, FIG. 4h, FIG. 4l); using the culture medium described in Example 1, 500 nM Cyclopamine-KAAD and 60 nM T3 were further added respectively from day 22, day 38 from the start of suspension culture to the completion of suspension culture, and cultured up to day 71 from the start of suspension culture.
# After fixing cell aggregates containing retinal tissue cultured under the above conditions with 4% para-formaldehyde, cryosections were prepared and subjected to immunostaining using CRX, TRβ2(TRb2) antibody, or DAPI staining for staining the cell nucleus.
# [2] = test system: cell aggregates containing a retinal tissue produced from human ES cells; assay: PAX6/CHX10 cell proportions in retinal tissue, about day 190 of suspension culture (immunostaining, Image J); conditions: for PAX6-negative/CHX10-strongly positive cells (bipolar cells) / PAX6-strongly positive/CHX10-negative cells (any of ganglion cell, amacrine cell, horizontal cell): about day 190 (day 188-191), T3 60 nM day 38-130, BMP4 0.15 nM or Cyclopamine-KAAD 500 nM day 22-100; for PAX6-strongly positive/CHX10-negative cell and PAX6-negative/CHX10-strongly positive cell, observation with fluorescent microscope: day 188-191, groups added with T3 compared to groups with no addition
# Method: as §1
# The cell aggregates containing a retinal tissue shown in Example 5 were prepared by respectively adding T3 or dorsalization signal transmitter as follows in the method described in Example 1. • [1]-T3 group (FIG. 5a, FIG. 5g, FIG. 5m); using the culture medium described in Example 1, culture was performed without addition up to day 191 from the start of suspension culture. • [2] +T3 group (FIG. 5b, FIG. 5h, FIG. 5n); using the culture medium described in Example 1, 60 nM T3 was further added from day 38 to day 130 from the start of suspension culture, and thereafter cultured up to day 188 from the start of suspension culture. From day 130 to day 188, medium B described in Example 1 was used. • [3] +BMP group (FIG. 5c, FIG. 5i, FIG. 5o); using the culture medium described in Example 1, 0.15 nM BMP4 was further added from day 22 to day 100 from the start of suspension culture, and thereafter cultured up to day 191 from the start of suspension culture. From day 100 to day 191, medium described in Example 1 was used. • [4] +T3+BMP group (FIG. 5d, FIG. 5j, FIG. 5p); using the culture medium described in Example 1, 0.15 nM BMP4 was further added from day 22 to day 100 from the start of suspension culture, 60 nM T3 was added from day 38 to day 130 from the start of suspension culture, and thereafter cultured up to day 188 from the start of suspension culture.
# [3] = test system: cell aggregates containing a retinal tissue produced from human ES cells; assay: CRX:Venus, RXR-γ and NRL cell proportions in retinal tissue, about day 190 of suspension culture (immunostaining, Image J); conditions: for CRX-positive cells (CRX:Venus-positive, photoreceptor precursor) / NRL-positive cells among CRX-positive cells (rod photoreceptor precursor) / RXR-γ-positive and NRL-negative cell among CRX-positive cells (cone photoreceptor precursor): about day 190 (day 188-193), T3 60 nM day 38-130, BMP4 0.15 nM or Cyclopamine-KAAD 500 nM day 22-100
# Method: as §1
# The cell aggregates containing a retinal tissue shown in Example 6 were prepared by respectively adding T3 or dorsalization signal transmitter (BMP4 or Cyclopamine-KAAD) as follows in the method described in Example 1. • [1]-T3 group (FIG. 6a, FIG. 6e, FIG. 6i, FIG. 6m); using the culture medium described in Example 1, culture was performed without addition up to day 191 from the start of suspension culture. • [2] +T3 group (FIG. 6b, FIG. 6f, FIG. 6j, FIG. 6n); using the culture medium described in Example 1, 60 nM T3 was further added from day 38 to day 130 from the start of suspension culture, and thereafter cultured up to day 192 from the start of suspension culture. From day 130 to day 192, medium described in Example 1 was used. • [3] +T3+BMP group (FIG. 6c, FIG. 6g, FIG. 6k, FIG. 6o); using the culture medium described in Example 1, 0.15 nM BMP4 was further added from day 22 to day 100 from the start of suspension culture, 60 nM T3 was added from day 38 to day 130 from the start of suspension culture, and thereafter cultured up to day 188 from the start of suspension culture. From day 130 to day 188, medium described in Example 1 was used. • [4] +T3+Cyclopamine-KAAD group (FIG. 6d, FIG. 6h, FIG. 6l, FIG. 6p); using the culture medium described in Example 1, 500 nM Cyclopamine-KAAD was further added from day 22 to day 100 from the start of suspension culture, 60 nM T3 was added from day 38 to day 130 from the start of suspension culture, and thereafter cultured up to day 193 from the start of suspension culture. From day 130 to day 193, medium described in Example 1 was used.
# [4] = test system: cell aggregates containing a retinal tissue produced from human ES cells; assay: CRX-positive cells in neural retinal tissue, day 100-105 of suspension culture (immunostaining, Image J)
# Method: A cell aggregate containing a retinal tissue in an initial developmental stage was prepared by the method described in “Kuwahara et al. Nat Commun 2015, 19(6), 6286-” after modification in part. That is, the aforementioned cultured ES cells were individually dispersed using TRYPLE™ Express cell dispersion solution (Invitrogen), and the individually dispersed human ES cells were suspended in 100 μL of a serum-free medium in a cell non-adhesive 96 well culture plate (SUMILON spheroid plate, SUMITOMO BAKELITE CO., LTD.) at 9×10^3 cells per well to allow rapid formation of aggregates, after which they were cultured at 37° C., 5% CO2. As the serum-free medium therefor, a serum-free medium obtained by adding 10% KSR, 450 μM 1-monothioglycerol, 1× Chemically defined lipid concentrate, 5 mg/mL BSA, 20 μM Y27632 to a 1:1 mixture of F-12 medium and IMDM medium was used. At 6 days after the start of suspension culture, BMP4 at a final concentration of 1.5 nM was added and suspension culture was continued. A half amount of the culture medium in the well was exchanged with the above-mentioned medium not supplemented with a BMP signal transduction pathway agonist every 3 or 4 days. A cell aggregate containing a retinal tissue at day 18 from the start of suspension culture was cultured in suspension in a serum-free medium (DMEM/F12 medium supplemented with 1% N2 supplement) containing 3 μM CHIR99021 and 5 μM SU5402 for 4 days, namely, up to day 22 from the start of suspension culture. Thereafter, suspension culture of the cell aggregate containing the retinal tissue was continued until it was appropriately used for analysis and the like. […]
# [5] = test system: cell aggregates containing a retinal tissue produced from human ES cells; assay: CRX:Venus green fluorescence of cell aggregates under a fluorescent microscope, day 69-74; conditions: T3 vs −T3 group
# Method: A cell aggregate containing a retinal tissue in an initial developmental stage was prepared by the method described in “Kuwahara et al. Nat Commun 2015, 19(6), 6286-” after modification in part. That is, the aforementioned cultured ES cells were individually dispersed using TRYPLE™ Express cell dispersion solution (Invitrogen), and the individually dispersed human ES cells were suspended in 100 μL of a serum-free medium in a cell non-adhesive 96 well culture plate (SUMILON spheroid plate, SUMITOMO BAKELITE CO., LTD.) at 9×10^3 cells per well to allow rapid formation of aggregates, after which they were cultured at 37° C., 5% CO2. As the serum-free medium therefor, a serum-free medium obtained by adding 10% KSR, 450 μM 1-monothioglycerol, 1× Chemically defined lipid concentrate, 5 mg/mL BSA, 20 μM Y27632 to a 1:1 mixture of F-12 medium and IMDM medium was used. At 6 days after the start of suspension culture, BMP4 at a final concentration of 1.5 nM was added and suspension culture was continued. A half amount of the culture medium in the well was exchanged with the above-mentioned medium not supplemented with a BMP signal transduction pathway agonist every 3 or 4 days. […]
# [6] = day 71-75, T3 vs −T3 group, combinations vs +T3 group
# [7] = day 188-193, compared to −T3 group
Molecule,CRX-positive and TRβ2-positive cells (cone photoreceptor precursor) [1],CRX-positive cells (photoreceptor precursor) contained in retinal tissue [1],PAX6-negative/CHX10-strongly positive cells (bipolar cells) [2],"PAX6-strongly positive/CHX10-negative cells (any of ganglion cell, amacrine cell, horizontal cell) [2]","PAX6-strongly positive/CHX10-negative cell and PAX6-negative/CHX10-strongly positive cell, observation with fluorescent microscope [2]","CRX-positive cells (CRX:Venus-positive, photoreceptor precursor) [3]",NRL-positive cells among CRX-positive cells (rod photoreceptor precursor) [3],RXR-γ-positive and NRL-negative cell among CRX-positive cells (cone photoreceptor precursor) [3],"CRX-positive cell (photoreceptor precursor), observation with fluorescence microscope [1, 6]","cone photoreceptor precursors (CRX-positive cell that expresses TRβ2), observation [1, 6]","ectopic CRX-positive cell in region on the basement membrane side from neuroblastic layer ([1]; day 71-75, observation with fluorescence microscope)","proportion of CRX-positive cells contained in the neural retinal tissue ([4]; T3 60 nM from day 38, BMP4 0.15 nM or Cyclopamine-KAAD 500 nM day 22-100)","CRX-positive cell (photoreceptor precursor), observation ([4]; compared to −T3 group)",ectopic photoreceptor precursors in neuroblastic layer and ganglion cell layer ([4]; observation),"RXR-γ-positive and NRL-negative cone photoreceptor precursor among CRX:Venus-positive photoreceptor precursors, observation [3, 7]","proportion of photoreceptor precursor among the cells contained in the retinal tissue, observation [3, 7]","green fluorescence shown by knocked-in CRX:Venus ([5]; day 69-74, T3 60 nM from day 38, BMP4 0.15 nM or Cyclopamine-KAAD 500 nM from day 22, combinations vs +T3 group)","green fluorescence shown by knocked-in CRX:Venus, in the presence of 9-cis retinoic acid ([5]; day 74, 100 nM 9-cis retinoic acid and 60 nM T3 from day 38, BMP4 0.45 nM from day 22, combination vs +T3 group)"
"BMP4: BMP protein, BMP signal transduction pathway agonist used as dorsalization signal transmitter",10.8%,17.0%,15.49%,24.60%,many,37.7%,6.1%,31.3%,–,–,–,–,–,–,–,–,–,–
"N[C@@H](Cc1cc(I)c(Oc2ccc(O)c(I)c2)c(I)c1)C(=O)O [T3, triiodothyronine]",11.3%,22.8%,4.29%,13.83%,markedly decreased,53.4%,9.4%,44.1%,found more,found in a greater number,found at the same level as in the apical surface,30.0%,remarkably increased,ectopic photoreceptor precursors are contained,increased,markedly high,observed more,observed more
CC1=C2C[C@H]3[C@@H](CC=C4CC(=O)CC[C@@]43C)[C@@H]2CC[C@]12O[C@@H]1C[C@H](C)CN(CCNC(=O)CCCCCNC(=O)CCc3ccccc3)[C@H]1[C@H]2C [Cyclopamine-KAAD],8.1%,14.1%,8.65%,24.50%,many,41.7%,11.5%,30.2%,–,–,–,–,–,–,–,–,–,–
